According to US9381200B2, “Nitrogen containing compounds” (WOCKHARDT LIMITED, priority 2011, dated 2016):
≈ marks a conversion by molar mass, not a printed value. Read-outs that look alike come from different tables or passages of the source.

Key:
Assay type in all cases: cell-based
K penumoniae H 523 = assay: Antibacterial activity (MIC) against MDR Gram negative strains
Description: (§1) The biological activity of representative compounds according to the invention against various bacterial strains was investigated. In a typical study, overnight grown bacterial cultures were diluted appropriately and inoculated on the agar media containing doubling dilutions of the test compounds. Observation for growth or no growth was performed after 16-20 hours of incubation at 35±2° C. in ambient air. The overall procedure was performed as per Clinical and Laboratory Standards Institute (CLSI) recommendations (Clinical and Laboratory Standards Institute (CLSI), Performance Standards for Antimicrobial Susceptibility Testing, 20th Informational Supplement, M 100-S20, Volume 30, No. 1, 2010).
(§2) The activities are expressed as MICs (mcg/ml).

E. Coli H 484 = assay: as above; settings: Escherichia coli
Description: as §1, §2

K. penumoniae S 48 = assay: as above
Description: as §1, §2

E. Coli M 44 = assay: as above; settings: Escherichia coli
Description: as §1, §2

E. Coli W 13351 = assay: as above; settings: Escherichia coli
Description: as §1, §2

E. Coli W 13352 = assay: as above; settings: Escherichia coli
Description: as §1, §2

E. Coli M 3 = assay: as above; settings: Escherichia coli
Description: as §1, §2

E. Coli B 89 = assay: as above; settings: Escherichia coli
Description: as §1, §2

P. aeruginosa ATCC 27853 = assay: as above; settings: Pseudomonas aeruginosa, ATCC27853
Description: as §1, §2

P. aeruginosa Ps 32 = assay: as above; settings: Pseudomonas aeruginosa, PS32
Description: as §1, §2

P. aeruginosa Ps 21 = assay: as above; settings: Pseudomonas aeruginosa, PS21
Description: as §1, §2

K penumoniae H 525 = assay: as above
Description: as §1, §2

E. Coli W 13353 = assay: as above; settings: Escherichia coli
Description: as §1, §2

K penumoniae H 521 = assay: as above
Description: as §1, §2

E. coli 7 MP = assay: Antibacterial activity (MIC), agar dilution per CLSI; settings: Escherichia coli, Table 3, E. coli 7 MP expressing ESBL, read-out: MIC
Description: as §1
(§3) Table 3 details antibacterial activity of representative compounds according to the invention against various E. coli strains (NCTC 13351, M 50 and 7 MP) expressing ESBL (Extended Spectrum Beta Lactamases).

E. coli NCTC 13351 = assay: as above; settings: Escherichia coli, NCTC13351, Table 3, E. coli NCTC 13351 expressing ESBL, 16-20 hours, 35±2° C., read-out: MIC
Description: as §1, §3

E. coli M 50 = assay: as above; settings: Escherichia coli
Description: as §1, §2

[1] = Table 4, K penumoniae H 523, KPC ESBL, MDR, read-out: MIC
[2] = Table 4, E. Coli H 484, Class C ESBL, MDR, read-out: MIC
[3] = Table 5, K. penumoniae S 48, Class B ESBL, MDR, read-out: MIC
[4] = Table 5, E. Coli M 44, Class B ESBL, MDR, read-out: MIC
[5] = Table 4, E. Coli W 13351, Class A ESBL, MDR, read-out: MIC
[6] = Table 4, E. Coli W 13352, Class A ESBL, MDR, read-out: MIC
[7] = Table 5, E. Coli M 3, Class B ESBL, MDR, read-out: MIC
[8] = Table 4, E. Coli B 89, Class C ESBL, MDR, read-out: MIC
[9] = Table 5, P. aeruginosa ATCC 27853, read-out: MIC
[10] = Table 5, P. aeruginosa Ps 32, read-out: MIC
[11] = Table 5, P. aeruginosa Ps 21, read-out: MIC
[12] = Table 4, K penumoniae H 525, KPC ESBL, MDR, read-out: MIC
[13] = Table 4, E. Coli W 13353, Class A ESBL, MDR, read-out: MIC
[14] = Table 4, K penumoniae H 521, KPC ESBL, MDR, read-out: MIC
[15] = M50, Table 3, E. coli M 50 expressing ESBL, agar dilution, read-out: MIC
[16] = M50, Table 4, E. Coli M 50, Class C ESBL, MDR, read-out: MIC

Structure (SMILES)	MIC (K penumoniae H 523; [1]) [µg/mL]	MIC (E. Coli H 484; [2]) [µg/mL]	MIC (K. penumoniae S 48; [3]) [µg/mL]	MIC (E. Coli M 44; [4]) [µg/mL]	MIC (E. Coli W 13351; [5]) [µg/mL]	MIC (E. Coli W 13352; [6]) [µg/mL]	MIC (E. Coli M 3; [7]) [µg/mL]	MIC (E. Coli B 89; [8]) [µg/mL]	MIC (P. aeruginosa ATCC 27853; [9]) [µg/mL]	MIC (P. aeruginosa Ps 32; [10]) [µg/mL]	MIC (P. aeruginosa Ps 21; [11]) [µg/mL]	MIC (K penumoniae H 525; [12]) [µg/mL]	MIC (E. Coli W 13353; [13]) [µg/mL]	MIC (K penumoniae H 521; [14]) [µg/mL]	MIC (E. coli 7 MP) [µg/mL]	MIC (E. coli NCTC 13351) [µg/mL]	MIC (E. coli M 50; [15]) [µg/mL]	MIC (E. coli M 50; [16]) [µg/mL]	further results
O=C(NNC(=O)[C@H]1CC[C@@H]2CN1C(=O)N2OS(=O)(=O)O)[C@@H]1C[C@H](F)CN1 (mixture of isomers) [Example 11, trans-sulfuric acid mono-[2-(N′-[(2S,4S)-4-fluoro-pyrrolidin-2-carbonyl]-hydrazinocarbonyl)-7-oxo-1,6-diaza-bicyclo[3.2.1]oct-6-yl]ester]	2	16	2	1	2	2	8	2	> 32	> 32	> 32	2	2	4	4	2	1	2	–
CN(C)c1cc(NC(=O)CNC(C)(C)C)c(O)c2c1C[C@H]1C[C@H]3[C@H](N(C)C)C(O)=C(C(N)=O)C(=O)[C@@]3(O)C(O)=C1C2=O [Tigecyclin, Tigecycline, reference compound]	–	–	–	–	–	–	–	–	–	–	–	–	–	–	–	–	–	–	MIC (K penumoniae H 523): 8 µg/mL (≈ 13.7 µM); MIC (E. Coli H 484): 0.25 µg/mL (≈ 0.427 µM); MIC (K. penumoniae S 48): 1 µg/mL (≈ 1.71 µM); MIC (E. Coli M 44): 0.25 µg/mL (≈ 0.427 µM); MIC (E. Coli W 13351): 1 µg/mL (≈ 1.71 µM); MIC (E. Coli W 13352): 0.25 µg/mL (≈ 0.427 µM); MIC (E. Coli M 3): 4 µg/mL (≈ 6.83 µM); MIC (E. Coli B 89): 0.5 µg/mL (≈ 0.854 µM); MIC (P. aeruginosa ATCC 27853): 16 µg/mL (≈ 27.3 µM); MIC (P. aeruginosa Ps 32): 16 µg/mL (≈ 27.3 µM); MIC (P. aeruginosa Ps 21): 16 µg/mL (≈ 27.3 µM); MIC (K penumoniae H 525): 2 µg/mL (≈ 3.41 µM); MIC (E. Coli W 13353): 1 µg/mL (≈ 1.71 µM); MIC (K penumoniae H 521): 2 µg/mL (≈ 3.41 µM); MIC (E. coli M 50; M50): 0.5 µg/mL (≈ 0.854 µM)

Further lines, with some results ahead:

MIC (K penumoniae H 523; [1]) [µg/mL]	MIC (E. Coli H 484; [2]) [µg/mL]	MIC (K. penumoniae S 48; [3]) [µg/mL]	MIC (E. Coli M 44; [4]) [µg/mL]	MIC (E. Coli W 13351; [5]) [µg/mL]	MIC (E. Coli W 13352; [6]) [µg/mL]	MIC (E. Coli M 3; [7]) [µg/mL]	MIC (E. Coli B 89; [8]) [µg/mL]	MIC (P. aeruginosa ATCC 27853; [9]) [µg/mL]	MIC (P. aeruginosa Ps 32; [10]) [µg/mL]	MIC (P. aeruginosa Ps 21; [11]) [µg/mL]	MIC (K penumoniae H 525; [12]) [µg/mL]	MIC (E. Coli W 13353; [13]) [µg/mL]	MIC (K penumoniae H 521; [14]) [µg/mL]	MIC (E. coli 7 MP) [µg/mL]	MIC (E. coli NCTC 13351) [µg/mL]	MIC (E. coli M 50; [15]) [µg/mL]	MIC (E. coli M 50; [16]) [µg/mL]	Structure (SMILES)	further results
0.5	4	0.5	0.5	0.5	0.5	0.5	0.5	> 32	> 32	> 32	0.5	0.25	0.5	2	0.5	0.5	0.5	O=C(NNC(=O)[C@H]1CC[C@@H]2CN1C(=O)N2OS(=O)(=O)O)[C@@H]1CCCCN1 (mixture of isomers) [Example 17, trans-sulfuric acid mono-[2-(N′—((S)-piperidin-2-carbonyl)-hydrazinocarbonyl)-7-oxo-1,6-diaza-bicyclo[3.2.1]oct-6-yl]ester]	–
8	8	> 32	16	16	16	8	8	> 32	> 32	> 32	> 32	8	8	32	16	8	8	O=C(NNC(=O)[C@H]1CCCN1)[C@H]1CC[C@@H]2CN1C(=O)N2OS(=O)(=O)O (mixture of isomers) [Example 30, trans-sulfuric acid mono-[2-(N′—[(R)-pyrrolidin-2-carbonyl]-hydrazinocarbonyl)-7-oxo-1,6-diaza-bicyclo[3.2.1]oct-6-yl]ester]	–
1	1	2	2	1	1	1	1	> 32	32	> 32	1	1	2	4	1	1	1	N[C@@H]1CN[C@H](C(=O)NNC(=O)[C@H]2CC[C@@H]3CN2C(=O)N3OS(=O)(=O)O)C1 (mixture of isomers) [Example 35, trans-sulfuric acid mono-[2-(N′-[(2S,4S)-4-amino-pyrrolidin-2-carbonyl]-hydrazinocarbonyl)-7-oxo-1,6-diaza-bicyclo[3.2.1]oct-6-yl]ester]	–
